Results: patent US20250235447A1, “METHODS FOR TREATING CARDIOVASCULAR CONDITIONS AND METHODS OF INCREASING THE EFFICIENCY OF CARDIAC METABOLISM” (IMBRIA PHARMACEUTICALS, INC., priority 2021, published 2025)

What was measured:
[1] = 28-day dog toxicity study (NOAEL and exposure); assay type: in vivo; conditions: from HED
Experimental: Based on the nonclinical toxicology data, it was considered that subjects in this clinical study were not at unreasonable risk of adverse effects. […] For a 60-kg individual, the NOAEL dose would be 6480 mg. With a 10-fold safety factor applied, this would allow for a maximum recommended starting dose (MRSD) of 648 mg/day.7,8 The planned starting dose in the current Phase 1 study was 50 mg, equivalent to 0.83 mg/kg/day for a 60-kg subject. This starting dose is less than 10% of the MRSD determined from the dog NOAEL and less than 1% of the dog NOAEL.
The relevant animal study was the 28-day dog study where the NOAEL for IMB-1018972 was 200 mg/kg/day.

[2] = tested on: myocardial energetics and metabolism; assay: Pharmacodynamic study in obese patients with Type 2 diabetes (PCr/ATP, myocardial triglyceride, body weight); assay type: in vivo, human
Experimental: Results of a pharmacodynamic study to evaluate the impact of 200 mg BID of a composition of a compound with formula (X) on rest myocardial energetics (PCr/ATP) in obese individuals with type 2 diabetes are detailed in FIGS. 52-65. The key endpoints of the study were to evaluate the metabolic response, specifically the impact on PDH flux using hyperpolarized ^13C-pyruvate MRS, as a measure of the compound's ability to promote glucose oxidation and recouple glucose oxidation with glycolysis. Also assessed was the effect on cardiac systolic and diastolic function, measured by cardiac magnetic resonance (CMR) and transthoracic echocardiography (TTE), and the effect on cardiac steatosis using ^1H-MRS.
The primary objective is to evaluate the impact of 200 mg of formula (X) on rest and stress myocardial energetics (PCr/ATP). Other objectives include: to evaluate the metabolic response, specifically the impact on PDH flux using hyperpolarized ^13C-pyruvate MRS, as a measure of the compound's ability to promote glucose oxidation; to assess the effect on cardiac systolic and diastolic function, as measured by cardiac magnetic resonance (CMR) and transthoracic echocardiography (TTE); to measure the impact on myocardial steatosis.
(§1) This was a randomized study consisting of a population of 20 patients with Type 2 diabetes and a BMI≥30 kg/m^2. The first five patients were treated for four weeks; the subsequent 15 patients (patients 6-20) were treated for eight weeks (with five additional patients prn). Ten patients had hyperpolarized ^13C-pyruvate MRS.

[3] = Pharmacodynamic study in obese patients with Type 2 diabetes: preliminary safety data; assay type: in vivo, human
Experimental: as §1
The preliminary baseline characteristics of randomized participants is detailed in FIG. 52. The preliminary baseline characteristics of completers is detailed in FIG. 53. FIG. 54 details adverse events as of the data cut-off date of September 20. Nineteen patients were on the drug from approximately one to eight weeks. There were no SAEs. Seven subjects reported nine adverse events. Two subjects had three drug-related AEs. All AEs were mild or moderate in severity. […] Overall, the compound was well-tolerated.

[4] = FIH study, SAD part: plasma pharmacokinetics after single oral dose; conditions: all blood samples of subjects that received IMB-1018972
Experimental: (§2) Each subject participated in only 1 group during the study.
(§3) The blood samples were taken via an indwelling intravenous catheter or by direct venipuncture. The exact times of blood sampling were recorded in the eCRF.

[5] = FIH study: safety and tolerability (adverse events, laboratory, vital signs, ECG)
Experimental: AEs were recorded from (first) admission until completion of the follow-up visit. Any clinically significant observations in results of clinical laboratory, 12-lead ECGs, vital signs, or physical examinations were recorded as AEs.
A treatment-emergent AE (TEAE) was defined as any event not present prior to (the first) administration of the study drug or any event already present that worsened in either severity or frequency following exposure to the study drug.
The severity of the AEs was rated as mild, moderate, or severe; the relationship between the AEs and the study drug was indicated as none, unlikely, possibly, likely, or definitely. Adverse events assessed as possibly, likely, or definitely were considered related to the study drug; AEs assessed as none or unlikely were considered not related to the study drug.
The ECG was recorded using an ECG machine equipped with computer-based interval measurements (with no/minimal disturbance by procedures). The following ECG parameters were recorded: heart rate, PR-interval, QRS-duration, QT-interval, QTcF-interval, and the interpretation of the ECG profile by the Investigator.

[6] = human, in vivo
Experimental: as §2, §3

[7] = human, in vivo; remark: listed apart in the source
Experimental: Subjects received multiple oral doses of an IR formulation of IMB-1018972 or placebo once every 12 hours (q12 h) for 14 consecutive days. Each subject participated in only 1 group during the study.
The doses were selected based upon the safety, tolerability, and PK data from the SAD part: • Group B1 multiple oral doses of an IR formulation of 150 mg IMB-1018972 (n=9) or matching placebo (n=3) twice daily (q12 h) for 14 days; on Day 14 only a single morning dose was administered • Group B2: multiple oral doses of an IR formulation of 50 mg IMB-1018972 (n=9) or matching placebo (n=3) q12 h for 14 days; on Day 14 only a single morning dose was administered
Before each morning dose, subjects fasted overnight for at least 10 hours following a snack on the evening before. On Days 1 and 14, subjects received a standardized breakfast that had to be consumed within 20 minutes. Dosing occurred at 30 minutes after the start of breakfast. Following dosing, subjects fasted for 4 hours until lunch. During fasting, fluids other than water were not allowed. On Days 2 to 13, breakfast was not standardized and was given within maximally 1 hour before dosing and consumed before dosing. No fasting after dosing was applicable on these days.

clinical = conditions: human, in vivo, 50 mg
Experimental: as §2, §3

[8] = 200 mg, combined 4- and 8-week cohorts, interim data

## COc1ccc(CN2CCN(CCOC(=O)c3cccnc3)CC2)c(OC)c1OC [IMB-1018972]
[1]
  NOAEL dose for a 60-kg individual: 6480 mg
[2]; [8]
  Cardiac energetics (PCr/ATP): significant and meaningful increase
  Myocardial steatosis (myocardial triglycerides): highly significant reduction
[2]; short-term administration, cohorts of the study
  Mean fasting glucose: significant reduction
[2]; short-term administration, combined 4- and 8-week cohorts
  Body weight: significant weight loss
[3]; nineteen patients on drug
  Flushing: no flushing reported
  Number of adverse events: nine
  Number of drug-related AEs: three
  Subjects reporting adverse events: Seven
  Subjects with drug-related AEs: Two
[3]; nineteen patients on drug about one to eight weeks
  SAEs: no SAEs
[3]; overall
  Tolerability: well-tolerated
[4]
  IMB-1018972 (parent) in plasma samples: could be measured in only few plasma samples
[5]; FE arm of SAD part
  Effect of fed dosing on number and incidence of TEAEs: appeared to attenuate the number and incidence of TEAEs
[5]; MAD part
  Subjects with TEAEs of flushing, SOC vascular disorders: 33.3%
  Subjects with TEAEs, SOC general disorders and administration site conditions: 27.8%
  Subjects with TEAEs, SOC musculoskeletal and connective tissue disorders: 27.8%
[5]; MAD part, 150 mg q12 h
  Number of TEAEs of flushing (mild): 7
[5]; MAD part, 6 of 18
  Subjects with TEAEs considered related to the study drug: 33.3%
[5]; MAD part, 11 of 18
  Subjects with TEAEs considered not related to the study drug: 61.1%
[5]; SAD part
  Subjects with TEAEs, SOC gastrointestinal disorders: 16.7%
  Subjects with TEAEs, SOC general disorders and administration site conditions: 20.8%
  Subjects with TEAEs, SOC nervous system disorders: 29.2%
  Subjects with TEAEs, SOC skin and subcutaneous tissue disorders: 16.7%
  Subjects with TEAEs, SOC vascular disorders: 29.2%
  Subjects with drug-related TEAEs of flushing (vascular disorders): 25%
  Subjects with drug-related TEAEs, nervous system disorders: 16.7%
[5]; SAD part, 7 of 24
  Subjects with TEAEs considered related to the study drug: 29.2%
[5]; single 150 mg IMB-1018972, fasted, FE arm
  Subjects reporting flushing: 2
[5]; single 400 mg IMB-1018972, fasted
  Subjects reporting flushing: Four

## COc1ccc(CN2CCNCC2)c(OC)c1OC [trimetazidine]
[6]
  Time at which detectable concentrations generally appeared: 15 to 30 min
[7]
  Geometric mean Cmax lower, MAD Day 1 150 mg fed vs SAD single 150 mg fed: 32%
clinical
  Tmax: 8 h
